Patent publication US10058520B2, “Compositions and methods for treating alzheimer's disease and dementia” (Department of Veterans Affairs, priority 2007, dated 2018)

Key:
APP isoforms = assay: Western blot with anti-APP antibody on hemisected brain extracts; format: in vivo, mice; settings: day 21, FIG. 4
Experimental: In FIG. 4, Western blots were performed utilizing anti-APP antibody on protein from the hemisected brain extracts.

APP gene = assay: RT-PCR of APP mRNA in brain of normal mice; format: in vivo; settings: normal mouse brain, day 21; FIG. 2 and 3; APP 751 mRNA for hypothyroid mice
Excerpt: On day 21, animals were killed, whole brains were removed and hemisected for protein and RNA analysis, and serum was collected for T4 analysis.

human Aβ 1-40 and 1-42 [1] = assay: ELISA for human Aβ in brain of R1.40 huAPP transgenic mice treated with T4; format: in vivo, R1.40 human APP transgenic mice
Excerpt: In another study, we discovered that thyroid hormone down-regulates Aβ 1-40 and 1-42 in mice transgenic for the human APP gene. […] R1.40 human APP transgenic mice contain the entire human APP gene carried on a yeast artificial chromosome.
Mice used in these studies carried the complete human APP gene (huAPP), including the 5′ upstream promoter region, inserted into a yeast artificial chromosome (YAC) construct and are referred to as huAPP-YAC transgenic mice (R1.40 strain). The huAPP gene in these mice contained the Swedish mutation and is expressed in high pathology brain regions.
R1.40 mice were implanted with T4 containing slow release pellets for three weeks and ELISA specific for human Aβ was performed utilizing normalized protein from mouse brain cytosols. We observed a 30% decrease in human Aβ 1-42 levels and a 25% decrease in Aβ 1-40 levels in mice treated for three weeks with T4. […] Thus, it has been shown that low level thyroid hormone therapy substantially decreases human Aβ40 and Aβ42 levels in both normal and hypothyroid transgenic mice (n=9 animals per group ±SD).

[2] = test system: APP secretion in SH-SY5Y and LA-N-5 human neuroblastoma cell lines and NHNP neuronal progenitor cells; assay: APP isoform secretion in human neuroblastoma and neuronal progenitor cells (western blot); format: cell-based; settings: differentiated (+RA) and undifferentiated (-RA) SH-SY5Y, all tested human cell lines, 24 hours of treatment, FIG. 1
[3] = blood, after a single dose; cited from earlier work
[4] = test system: +356/+755 region of the first intron of the mouse mdm2 gene in LA-N-5 neuroblastoma cells and HCC1806 breast cancer cells; assay: pGL3MDM2 reporter transfection assay; format: cell-based; settings: LA-N-5 and p53 negative HCC1806 cells; FIG. 8 (treatment with T3)
Excerpt: In order to evaluate the direct effect of thyroid hormone on mdm2 gene expression, we cloned the +356/+755 region from the first intron of the mouse mdm2 gene into pGL3-Promoter vector (pGL3MDM2) for use in transfection assays. This region contains an element which binds monomers and homodimers of TRα, in addition to heterodimers of TRα and RXRβ.

human Aβ 1-40 and 1-42 [5] = assay: ELISA for human Aβ in brain of huAPP transgenic mice treated with CHP+Zn; format: in vivo, human APP transgenic mice; settings: 1.0 mg/L CHP+10 mg/L Zn, or Zn or CHP alone, n=9, FIG. 14
Excerpt: According to our studies, CHP in combination with a zinc salt decreases Aβ 1-40 and 1-42 in mice transgenic for human APP. […]
In some embodiments, higher doses are effective as well.

[6] = humans and mice; previous studies; cited from earlier work
insulin levels = settings: previous studies; concentration dependent relative to the amount of zinc; cited from earlier work
[7] = R1.40 mice, T4 slow release pellets for three weeks, brain cytosols, ELISA

With CCCc1cc(=O)[nH]c(=S)[nH]1 [propylthiouracil] the “expression of APP isoforms (western blot) relative to euthyroid animals” value (APP isoforms) was “increased”, the “APP mRNA levels (RT-PCR) vs control animals” value (APP gene) was “increased” and the “brain Aβ levels in hypothyroid animals” value (human Aβ 1-40 and 1-42 [1]; iodine-deficient PTU diet for three weeks, FIG. 6) was “increase”.
In the case of N[C@@H](Cc1cc(I)c(Oc2ccc(O)c(I)c2)c(I)c1)C(=O)O [T3, L-triiodothyronine], the APP secretion [2] is listed as “negative hormonal regulation of APP secretion in a concentration dependent manner” and the half-life [3] is listed as “hours”.
In the case of thyroid hormone, the “reporter expression of pGL3MDM2” value [4] is reported as “negative regulation”.
With [Zn] [Zn] the “brain levels of soluble and insoluble Aβ40 and Aβ42 vs control” value (human Aβ 1-40 and 1-42 [5]) was “no significant changes”.
In the case of O=C1N[C@@H](Cc2cnc[nH]2)C(=O)N2CCC[C@@H]12 [CHP, cyclo-Hispro], the toxicity [6] is given as “non-toxic”, the “brain levels of soluble and insoluble Aβ40 and Aβ42 vs control” value (human Aβ 1-40 and 1-42 [5]) is given as “no significant changes” and the insulin levels (insulin levels) is given as “does not decrease”.
For NC(Cc1cc(I)c(Oc2cc(I)c(O)c(I)c2)c(I)c1)C(=O)O (stereo not shown) [T4, 3:5,3′:5′ tetra-iodothyronine], the “decrease in Aβ 1-40 levels” value (human Aβ 1-40 and 1-42 [1]; [7]) is given as 25%, the “decrease in human Aβ 1-42 levels” value (human Aβ 1-40 and 1-42 [1]; [7]) is given as 30% and the half-life [3] is given as “several days”.
